#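 Cells were grown in 96-well plates and exposed to each compound for 48 hours at five concentrations; endpoints were interpolated linearly between bracketing concentrations, or set to the highest concentration if not reached. GI50 = concentration required for 50% inhibition of growth.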 Active and inactive are the calls of the source. No stated cut-off is given here; in the data, active = GI50 up to about 1.1 µM and inactive = higher.
# Legend:
# Test in all cases: NCI anticancer screen, dose series, 48 h
# A498 = test system: A498
# HCT-15 = test system: HCT-15
# Hs-578T = test system: Hs-578T
# K562 = test system: K562
# KM12 = test system: KM12
# LOX IMVI = test system: LOX IMVI
# M14 = test system: M14
# MCF7 = test system: MCF7
# MDA-MB-435 = test system: MDA-MB-435
# MOLT-4 = test system: MOLT-4
# NCI-H460 = test system: NCI-H460
# OVCAR-4 = test system: OVCAR-4
# OVCAR-8 = test system: OVCAR-8
# RPMI-8226 = test system: RPMI-8226
# SK-MEL-2 = test system: SK-MEL-2
# SNB-19 = test system: SNB-19
# U-251 = test system: U-251
# DMS-114 = test system: DMS-114
# M19-MEL = test system: M19-MEL
# LXFL 529 = test system: LXFL 529
Structure (SMILES),GI50 (A498),GI50 (HCT-15) [µM],GI50 (Hs-578T),GI50 (K562),GI50 (KM12),GI50 (LOX IMVI),GI50 (M14),GI50 (MCF7),GI50 (MDA-MB-435),GI50 (MOLT-4),GI50 (NCI-H460),GI50 (OVCAR-4),GI50 (OVCAR-8),GI50 (RPMI-8226),GI50 (SK-MEL-2),GI50 (SNB-19),GI50 (U-251),GI50 (DMS-114),GI50 (M19-MEL),GI50 (LXFL 529)
COc1ccc(N2C(=O)C3c4[nH]c5cc(C)ccc5c4C4CCC(C(C)(C)C)CC4C3C2=O)cc1 (stereo unspecified),5.21 µM (inactive),> 10,3.08 µM (inactive),> 10 µM (inactive),> 10 µM (inactive),7.24 µM (inactive),> 10 µM (inactive),> 10 µM (inactive),> 10 µM (inactive),> 10 µM (inactive),7.62 µM (inactive),4.36 µM (inactive),4.88 µM (inactive),> 10 µM (inactive),> 10 µM (inactive),> 10 µM (inactive),5.43 µM (inactive),–,–,–
O=C(O)CN1CCCC(Cc2c[nH]c3ccccc23)C1 (stereo unspecified),–,> 100,> 100 µM (inactive),40.6 µM (inactive),> 100 µM (inactive),> 100 µM (inactive),> 100 µM (inactive),–,> 100 µM (inactive),–,–,> 100 µM (inactive),> 100 µM (inactive),–,> 100 µM (inactive),–,–,–,–,–
CCOC(=O)CNC(=O)N(CC)C12CC3CC(CC(C3)C1)C2,115 µM (inactive),115,–,122 µM (inactive),125 µM (inactive),115 µM (inactive),–,148 µM (inactive),–,119 µM (inactive),154 µM (inactive),188 µM (inactive),150 µM (inactive),115 µM (inactive),103 µM (inactive),153 µM (inactive),119 µM (inactive),107 µM (inactive),153 µM (inactive),–
O=C1c2cccc3cc4ccccc4c(c23)C(=O)N1CCNCCN1C(=O)c2cccc3cc4ccccc4c(c23)C1=O,0.716 µM (active),0.309,–,0.301 µM (active),3.93 µM (inactive),0.233 µM (active),–,0.282 µM (active),–,0.097 µM (active),0.0541 µM (active),0.625 µM (active),0.357 µM (active),0.718 µM (active),1.58 µM (inactive),0.39 µM (active),0.282 µM (active),0.23 µM (active),0.508 µM (active),–
O=C1C[C@H](c2ccccc2)C2(C(=O)c3ccccc3C2=O)[C@@H](c2ccccc2)C1,7.64 µM (inactive),25.3,17.1 µM (inactive),9.86 µM (inactive),> 10 µM (inactive),–,6.24 µM (inactive),37.2 µM (inactive),> 10 µM (inactive),8.87 µM (inactive),25.8 µM (inactive),14.4 µM (inactive),35.6 µM (inactive),> 100 µM (inactive),12.8 µM (inactive),23.9 µM (inactive),31.5 µM (inactive),–,–,–
CC1OC(OC2C(OC(=O)[C@@H]3CC(C)(C)C[C@H]4C5=CC[C@@H]6[C@@]7(C)C[C@H](O)[C@H](OC8OC(CO)C(O)C(O)C8O)[C@@](C)(CO)[C@@H]7[C@H](O)C[C@@]6(C)[C@]5(C)CC[C@@]34C)OCC(O)C2O)C(O)C(O)C1O (stereo partly specified),–,> 7.5,> 7.5 µM (inactive),> 7.5 µM (inactive),> 7.5 µM (inactive),> 7.5 µM (inactive),> 7.5 µM (inactive),> 7.5 µM (inactive),> 7.5 µM (inactive),> 7.5 µM (inactive),> 7.5 µM (inactive),> 7.5 µM (inactive),> 7.5 µM (inactive),–,> 7.5 µM (inactive),> 7.5 µM (inactive),> 7.5 µM (inactive),–,–,–
CSc1sc(=S)sc1SC,> 100 µM (inactive),> 100,–,> 100 µM (inactive),> 100 µM (inactive),> 100 µM (inactive),–,> 100 µM (inactive),–,> 100 µM (inactive),> 100 µM (inactive),> 100 µM (inactive),> 100 µM (inactive),> 100 µM (inactive),> 31.6 µM (inactive),> 100 µM (inactive),> 100 µM (inactive),> 100 µM (inactive),> 100 µM (inactive),–
CC1=C(C(=O)N[C@@H](CC(C)C)C(=O)O)N2C(=O)[C@@H](NC(=O)C(N)c3ccccc3)[C@H]2SC1 (stereo partly specified),> 100 µM (inactive),> 100,> 100 µM (inactive),> 100 µM (inactive),> 100 µM (inactive),> 100 µM (inactive),> 100 µM (inactive),> 100 µM (inactive),> 100 µM (inactive),> 100 µM (inactive),> 100 µM (inactive),> 100 µM (inactive),> 100 µM (inactive),> 100 µM (inactive),> 100 µM (inactive),> 100 µM (inactive),> 100 µM (inactive),–,–,–
CC1CC2C3CC(F)C4=CC(=O)C=CC4(C)C3(F)C(O)CC2(C)C1(O)C(=O)COC(=O)C(C)(C)C (stereo unspecified),–,> 100,–,> 100 µM (inactive),> 100 µM (inactive),> 100 µM (inactive),> 100 µM (inactive),–,–,66.2 µM (inactive),47 µM (inactive),27.4 µM (inactive),–,44.4 µM (inactive),> 100 µM (inactive),64.3 µM (inactive),> 100 µM (inactive),> 100 µM (inactive),> 100 µM (inactive),–
C=C1C(=O)OC2CC(C)C3C4OC4C(O)C3(C)C(O)C12 (stereo unspecified),16 µM (inactive),22.8,–,20.6 µM (inactive),23.5 µM (inactive),14 µM (inactive),–,20.7 µM (inactive),–,11.9 µM (inactive),19 µM (inactive),26.5 µM (inactive),28.4 µM (inactive),13.7 µM (inactive),25.9 µM (inactive),44.7 µM (inactive),43.2 µM (inactive),12.5 µM (inactive),21.1 µM (inactive),–
CCC1OC(=O)C(C)C(OC2CC(C)(O)C(O)C(C)O2)C(C)C(O)C(C)(O)CC(C)C(=O)C(C)C(O)C1C (stereo unspecified),> 267 µM (inactive),> 300,–,> 300 µM (inactive),225 µM (inactive),> 300 µM (inactive),–,> 300 µM (inactive),–,> 300 µM (inactive),> 300 µM (inactive),> 300 µM (inactive),> 300 µM (inactive),> 300 µM (inactive),> 300 µM (inactive),> 300 µM (inactive),> 300 µM (inactive),> 300 µM (inactive),> 300 µM (inactive),–
Nc1c(Cl)c([N+](=O)[O-])cc2c1OCCCCO2,–,> 100,> 100 µM (inactive),> 100 µM (inactive),> 100 µM (inactive),61.4 µM (inactive),> 100 µM (inactive),> 100 µM (inactive),> 100 µM (inactive),> 100 µM (inactive),> 100 µM (inactive),> 100 µM (inactive),> 100 µM (inactive),> 100 µM (inactive),> 100 µM (inactive),> 10 µM (inactive),3.9 µM (inactive),–,–,–
COc1ccc(/C=C2\Oc3cc(OC(C)=O)ccc3C2=O)cc1,–,94.4,> 100 µM (inactive),78.2 µM (inactive),> 100 µM (inactive),–,> 100 µM (inactive),> 100 µM (inactive),> 100 µM (inactive),> 100 µM (inactive),> 100 µM (inactive),> 100 µM (inactive),> 100 µM (inactive),57.3 µM (inactive),–,> 100 µM (inactive),> 100 µM (inactive),–,–,–
COC(=O)C1=CC[C@@H]2C(C(=O)O)=CO[C@@H](OC3OC(CO)C(O)C(O)C3O)[C@H]12 (stereo partly specified),> 30 µM (inactive),> 300,–,> 300 µM (inactive),> 300 µM (inactive),> 300 µM (inactive),–,> 114 µM (inactive),–,> 300 µM (inactive),> 300 µM (inactive),> 300 µM (inactive),> 300 µM (inactive),> 300 µM (inactive),> 300 µM (inactive),> 300 µM (inactive),> 300 µM (inactive),> 300 µM (inactive),> 300 µM (inactive),–
CCC/C=C/C=C\C(=O)O[C@@H]1[C@@H](C)[C@]2(O)[C@@H]3C=C(C)C(=O)[C@H]3CC(COC(C)=O)=C[C@H]2[C@@H]2C(C)(C)[C@]12OC(C)=O,1.99 µM (inactive),28.6,–,2.49 µM (inactive),47.9 µM (inactive),16.8 µM (inactive),–,37.8 µM (inactive),–,10.2 µM (inactive),1.61 µM (inactive),30.2 µM (inactive),40.7 µM (inactive),22.9 µM (inactive),43.3 µM (inactive),54.1 µM (inactive),17.6 µM (inactive),45.1 µM (inactive),32.2 µM (inactive),–
COc1cc(OC)c(SSCCCCS(=O)O)c(OC)c1,14.6 µM (inactive),16.6,–,17.4 µM (inactive),14.9 µM (inactive),10.7 µM (inactive),14.3 µM (inactive),–,–,6.78 µM (inactive),17.1 µM (inactive),14.3 µM (inactive),16 µM (inactive),–,19.5 µM (inactive),17.5 µM (inactive),14.5 µM (inactive),16.6 µM (inactive),7.52 µM (inactive),12.2 µM (inactive)
O=C1/C(=C/c2ccc(Cl)cc2)CNC/C1=C\c1ccc(Cl)cc1,4.65 µM (inactive),1.16,3.47 µM (inactive),–,1.22 µM (inactive),1.57 µM (inactive),3.71 µM (inactive),1.52 µM (inactive),2.82 µM (inactive),3.72 µM (inactive),1.35 µM (inactive),–,2.04 µM (inactive),0.5 µM (active),–,1.82 µM (inactive),0.782 µM (active),–,–,–
